Data: article PMC6273304, “Efficient Double Suzuki Cross-Coupling Reactions of 2,5-Dibromo-3-hexylthiophene: Anti-Tumor, Haemolytic, Anti-Thrombolytic and Biofilm Inhibition Studies” (Molecules, 2016)
Values joined by “and” are separate entries in the source; they are usually repeats but may differ in a detail not shown here. Identical values can stand only once.

Experiments:
[1] = system: 4T1 cells; assay: MTT assay, anti-tumor activity against 4T1 cells; format: cell-based; details: 72 h treatment
Description: (§1) Metastasis is the major reason of morbidity and mortality in cancer disease. In breast cancer patients, several tissues involving liver, lung, bone, and lymph node are affected by tumor involvement. The anti-tumor activities of all newly-synthesized thiophene derivatives were screened for human breast cancer cell lines 4T1, MDA-MB-231, and MCF-7 using MTT (3-(4,5-dimethylthiazol-2-yl)-2,5-diphenyltetrazolium bromide) assay in vitro. Cisplatin was used as a standard anti-tumor drug in this assay. […] The highest activity of 3h might have been due to the presence of electron-donating methylthio group (-SMe) on aromatic phenyl ring.
(§2) In brief, 0.8 × 10^5 cells/mL were seeded in 96-well plates and were incubated in a humidified CO2 incubator overnight. The following day, serial dilution of the samples was performed with various concentration. The plates were left to incubate with the treatment for 72 h. After the designated time, 20 μL of MTT (5 mg/mL) was inserted into each of the wells and the cells were further incubated for an additional 4 h. Later, the media and the treatment were removed from all of the wells and 100 μL of DMSO was added. The absorbance plates were then read using a spectrophotometer (BioTek) at 570 nm.

[2] = system: MDA-MB-231 cells; assay: MTT assay, anti-tumor activity against MDA-MB-231 cells; format: cell-based, human; details: 72 h treatment
Description: as §1
The anti-tumor activity of all newly-synthesized compounds was also examined against MDA-MB-231 breast cancer cells. […] It is likely possible that the electron-withdrawing iodo groups (-I) attached with phenyl ring might have been affecting the cytotoxicity of MDA-MB-231 cells.
as §2

[3] = system: MCF-7 cells; assay: MTT assay, anti-tumor activity against MCF-7 cells; format: cell-based, human
Description: as §1
The anti-tumor activity of these compounds was also studied for MCF-7 breast cancer cell line.
as §2

[4] = system: human blood clots; assay: Anti-thrombolytic activity (in vitro clot lysis); details: 100 μL sample, 90 min at 37 °C
Description: Cerebral Venous Sinus Thrombosis (CVST) is a central nervous disorder, which is a common disease caused by thrombophilia and […]. This fatal disease has been treated by the application of intravenous heparin and warfarin drugs. Now a days, this disease is usually cured by thrombolytic drugs, such as urokinase and streptokinase, which are playing a significant effect in the cure of CVST [25]. In the present study, we have explored the potential of our newly synthesized thiophene derivatives for anti-thrombolytic activity by the procedure reported elsewhere. […] This highest value of % lysis achieved by 3g can be attributed to the electron-withdrawing fluorine and chlorine groups on the aromatic ring.
The anti-thrombolytic activity of all newly-synthesized thiophene derivatives was investigated by following the previously-reported method. In a typical procedure, the sterile eppendorfs were filled with fresh venous blood taken from the human volunteers. The eppendorf tubes, which contained human blood (500 μL), were placed for 45 min at 37 °C to allow for clot formation. Once the clots were formed, the known volumes (100 μL) of sample solutions (3a–i) were added in eppendorfs having no serum in the blood samples. Basically, the serum was removed from blood prior to the clot formation stage. After the addition of samples, the tubes were incubated again for 90 min at 37 °C. For each experiment, the compound Streptokinase was used as a positive control, while water was used as a negative control. The anti-thrombolytic activity of newly-synthesized products was determined at percentage.

[5] = system: Escherichia coli; assay: Biofilm inhibition assay; format: cell-based; details: E. coli, 50 μM/mL, 24 h at 37 °C
Protocol: Pathogenic micro-organisms form a biofilm, which mainly causes morbidness and mortality. This biofilm consists of conglomerations of bacterial cells and secured by a polymeric substance created by itself. Several fatal infections are caused by biofilms and they are difficult to remove. The inhibition activities of all newly-synthesized thiophene derivatives (3a–i) against biofilm formation were assayed using the previously-reported method. The experimentally-determined biofilm inhibition values for all compounds are expressed in Table 3. A selected strain of Gram-negative bacteria (Escherichia coli) was used to determine the anti-bacterial activity of all new derivatives at concentration of 50 μM/mL. […] A likely possible cause of this high activity can be attributed to the electron-withdrawing substituents attached with the aromatic phenyl ring of 3d, which might have been playing a significant role for increasing the anti-bacterial activity of this compound against Gram-negative bacteria. We believe that our newly-developed thiophene-based compounds with high % inhibition values can be potentially used to control the formation of biofilms.
The newly-synthesized thiophene derivatives were assayed for their biofilm inhibition activity using the previously reported method. For these measurements, the solutions of the thiophene derivatives were prepared in ethyl acetate. In brief, about 100 μL of sample solutions (3a–i) and 100 μL nutrient broth (Oxoid, Hampshire, UK) along with bacterial suspension (20 μL) were placed on the wells of 96-well sterile culture plates. Rifampicin was used as a positive control, while nutrient broth was used as a negative control for these biofilm inhibition activity measurements. The plates were covered and incubated for 24 h at 37 °C. Each plate was washed three times by using 220 μL of phosphate-buffered solution. After washing, each plate was shaken strongly in order to remove the non-adherent bacteria. 220 μL of 99% methanol solution was used to fix the remaining bacteria from these plates, followed by the drying in hot oven. After drying, the plates were stained with […] of crystal violet with a concentration of […] for five minutes. The excess stain from these plates was removed simply by using tap water. About 220 µL glacial acetic acid (33% concentration) was used to remove the dye attached with the cells. Each well was examined for OD value with the help of the micro-plate reader (BioTek, Winooski, VT, USA) at 630 nm.

[6] = system: red blood cells (RBCs); assay: Haemolytic activity; format: cell-based; details: 30 min, pH 7.4
Description: The newly-synthesized molecules (3a–i) were also examined for their hemolytic activity, following the method reported by Powell and co-workers. The standard drug Triton X-100 was employed as a reference in these measurements. […] Ding et al. reported that chloro group-containing molecules display facile haemolytic activity as compared with those compounds having a methyl group substitution on the ring.
The hemolytic activity of newly synthesized thiophene derivatives was examined by following the previously-reported method. For these measurements, the solutions of the thiophene derivatives were prepared in ethyl acetate. In brief, about 3 mL of newly-obtained heparinized blood was taken in 15 mL sterile Falcon tube, which was later centrifuged for 5 min at 850 rpm. The supernatant was removed and washed three times and was later placed at room temperature for 30 min. In order to wash the thick pellet, 5 mL of ice-cold (4 °C) phosphate-buffered saline (PBS) having pH 7.4 was employed. The same PBS buffer (20 mL) was used to maintain the cells over longer periods of time. The erythrocytes present in cells were measured and diluted with PBS buffer. Approximately 180 µL of this suspension of erythrocytes was taken along with 20 µL of sample solution (3a–i) in eppendorfs. These eppendorfs were incubated thermally at human body temperature for 30 min, followed by centrifuging at 1310 rpm again for 5 min. After significant centrifugation, the supernatant was removed and diluted with phosphate-buffered saline (900 µL) and was later placed on ice. Each sample solution (200 µL) was kept in 96-well culture plates. For each measurement, phosphate-buffered saline and 0.1% Triton X-100 were employed as negative and positive control, respectively. A quant instrument was used to observe the absorbance of all sample solutions at 576 nm.

[7] = Homo sapiens, MCF7, 72 h treatment

N.N.[Cl][Pt][Cl] [Cisplatin, reference compound]
IC50 [1]: 21.5 µM
IC50 [2]: 29 µM and 29.1 µM
IC50 ([3]; 72 h treatment): 48 µM and 48.3 µM

CCCCCCc1cc(-c2ccc(C)cc2)sc1-c1ccc(C)cc1 [Compound 3a, 2,5-Bis(4-methylphenyl)-3-hexylthiophene]
IC50 ([1]; 4T1, 72 h): 30.5 ± 0.08 µM
IC50 ([2]; Homo sapiens): 36.8 ± 0.21 µM
IC50 [3, 7]: 26.2 ± 0.7 µM
% Lysis (clot lysis, anti-thrombolytic activity) [4]: 16.25 ± 0.028%
inhibition at 50 µM [5]: 62.5 ± 0.038%

CCCCCCc1cc(-c2cc(C)cc(C)c2)sc1-c1cc(C)cc(C)c1 [Compound 3b, 2,5-Bis(3,5-dimethylphenyl)-3-hexylthiophene]
IC50 ([1]; 4T1, 72 h): 30 ± 0.81 µM
IC50 ([2]; Homo sapiens): 32.2 ± 2.73 µM
IC50 [3, 7]: 33.8 ± 0.29 µM
% Lysis (clot lysis, anti-thrombolytic activity) [4]: 25.32 ± 0.092%
inhibition at 50 µM [5]: 59.48 ± 0.073%
% Lysis of RBC [6]: 4.54 ± 0.014%

CCCCCCc1cc(-c2ccc(OC)cc2)sc1-c1ccc(OC)cc1 [Compound 3c, 3-Hexyl-2,5-bis(4-methoxyphenyl)thiophene]
IC50 ([1]; 4T1, 72 h): 29.5 ± 4.3 µM
IC50 ([2]; Homo sapiens): 40 ± 0.41 µM
IC50 [3, 7]: 35.7 ± 0.09 µM
% Lysis (clot lysis, anti-thrombolytic activity) [4]: 41.12% and 41.12 ± 0.035%
inhibition at 50 µM [5]: 73.27 ± 0.023%
% Lysis of RBC [6]: 5.80 ± 0.045%

CCCCCCc1cc(-c2ccc(Cl)cc2)sc1-c1ccc(Cl)cc1 [Compound 3d, 2,5-Bis(4-chlorophenyl)-3-hexylthiophene]
IC50 ([1]; 4T1, 72 h): 22.8 ± 0.04 µM
IC50 ([2]; Homo sapiens): 24.8 ± 0.56 µM
IC50 [3, 7]: 27.5 ± 0.67 µM
% Lysis (clot lysis, anti-thrombolytic activity) [4]: 2.04 ± 0.091%
inhibition at 50 µM [5]: 78.85 ± 0.057%
% Lysis of RBC [6]: 6.66 ± 0.057%

CCCCCCc1cc(-c2ccc(I)cc2)sc1-c1ccc(I)cc1 [Compound 3e, 3-Hexyl-2,5-bis(4-iodophenyl)thiophene]
IC50 ([1]; 4T1, 72 h): 21.5 ± 3.71 µM
IC50 ([2]; Homo sapiens): 22.9 ± 3.8 µM
IC50 [3, 7]: 91.4 ± 0.59 µM
% Lysis (clot lysis, anti-thrombolytic activity) [4]: 32.42 ± 0.046%
inhibition at 50 µM [5]: 73.8 ± 0.032%
% Lysis of RBC [6]: 3.62 ± 0.024%

CCCCCCc1cc(-c2cc(F)cc(F)c2)sc1-c1cc(F)cc(F)c1 [Compound 3f, 2,5-Bis(3,5-difluorophenyl)-3-hexylthiophene]
IC50 ([1]; 4T1, 72 h): 31.5 ± 1.1 µM
IC50 ([2]; Homo sapiens): 28.1 ± 0.72 µM
IC50 [3, 7]: 42.8 ± 2.87 µM
% Lysis (clot lysis, anti-thrombolytic activity) [4]: 12.34 ± 0.073%
inhibition at 50 µM [5]: 69.68 ± 0.049%

CCCCCCc1cc(-c2ccc(F)c(Cl)c2)sc1-c1ccc(F)c(Cl)c1 [Compound 3g, 2,5-Bis(3-chloro-4-fluorophenyl)-3-hexylthiophene]
IC50 ([1]; 4T1, 72 h): 22 ± 0.57 µM
IC50 ([2]; Homo sapiens): 26.2 ± 0.28 µM
IC50 [3, 7]: 44 ± 0.17 µM
% Lysis (clot lysis, anti-thrombolytic activity) [4]: 53.12% and 53.12 ± 0.063%
inhibition at 50 µM [5]: 75.53 ± 0.041%
% Lysis of RBC [6]: 15.57 ± 0.034%

CCCCCCc1cc(-c2ccc(SC)cc2)sc1-c1ccc(SC)cc1 [Compound 3h, 3-Hexyl-2,5-bis(4-(methylthio)phenyl)thiophene]
IC50 ([1]; 4T1, 72 h): 16 µM
IC50 [1]: 16.1 ± 0.09 µM
IC50 ([2]; Homo sapiens): 29.2 ± 0.04 µM
IC50 [3, 7]: 35.1 ± 3.8 µM
% Lysis (clot lysis, anti-thrombolytic activity) [4]: 0.27 ± 0.021%
inhibition at 50 µM [5]: 27.12 ± 0.039%

CCCCCCc1cc(-c2cccc(C(C)=O)c2)sc1-c1cccc(C(C)=O)c1 [Compound 3i, 2,5-Bis(3-acetylphenyl)-3-hexylthiophene]
IC50 ([1]; 4T1, 72 h): 23.2 ± 0.08 µM
IC50 ([2]; Homo sapiens): 36.8 ± 0.82 µM
IC50 [3, 7]: 36.8 ± 0.03 µM
% Lysis (clot lysis, anti-thrombolytic activity) [4]: 1.84 ± 0.083%
inhibition at 50 µM [5]: 76.86 ± 0.083%

Streptokinase [reference compound]
% Lysis (clot lysis, anti-thrombolytic activity) [4]: 100%
